Assay results from publication PMC12189828, “Substitution of Proline Residues by 4-Fluoro-L-Proline Affects the Mechanism of the Proline-Rich Antimicrobial Peptide Api137” (Antibiotics, 2025).
Several values for one entry are separate records, joined by “and”; a condition that tells them apart may be missing. Equal values may be shown once. Where a SMILES comes first, the peptide text is derived from it. The star is where a group is joined. Orn(α-tetramethylguanidino) = CN(C)C(=N[C@@H](CCCN)C(=O)*)N(C)C

Experiments:
[1] = tested on: E. coli RN31; assay: Growth inhibition of E. coli RN31 during 90 min exponential growth phase; assay type: cell-based, Escherichia coli; details: E. coli RN31, 33% TSB, peptide 8 µg/mL, 90 min, OD600; two biological replicates (n = 2)
Experimental: The following steps were performed on ice. Cells were harvested by centrifugation (4000× g, 4 °C, 25 min), washed with TICO buffer (20 mmol/L Hepes-KOH, pH 7.6, 6 mmol/L MgAc2, 30 mmol/L KAc), centrifuged (4000× g, 25 min, 4 °C), and stored at −80 °C. The cell pellet was suspended in TICO buffer (500 µL) and mixed with silica beads (zirconium glass pellets, 100 µm diameter; Carl Roth; Karlsruhe, Germany) to lyse the cells on a FastPrep-24^TM 5G (MP Biomedicals, Solon, OH, USA) using three disruption cycles (30 s, 6.0 m/s) interrupted by 1 min of incubation on ice after each cycle. Cell debris was removed by centrifugation (5000× g, 4 °C, 5 min), the supernatant was transferred to a new reaction tube, centrifuged (20,000× g, 4 °C, 20 min), the absorbance was recorded at 260 nm on a NanoPhotometer® NP80, and the sample was stored at −80 °C. […]

[2] = tested on: in vitro expression of sfGFP in the presence of RF1; assay: In vitro transcription-translation (iTT) assay of sfGFP in the presence of RF1; assay type: biochemical; details: peptide 5 µmol/L, RF1, 37 °C, 2 h, fluorescence; normalized to absence of PrAMPs; n = 3
Procedure, shortened: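 Cell-free PURExpress ΔRF123 system was supplemented with 50-fold-diluted RF1 and a sfGFP template ending in a UAG stop codon (35 ng, 0.1325 pmol). PrAMP was added from a 50 or 0 µmol/L aqueous solution. Reactions ran at 37 °C for 2 h, with fluorescence (ex 485/em 535 nm) read every 10 min.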

CC[C@H](C)[C@H](NC(=O)[C@H](Cc1ccc(O)cc1)NC(=O)[C@@H](NC(=O)[C@@H]1CCCN1C(=O)[C@H](CCCNC(=N)N)NC(=O)[C@H](CC(N)=O)NC(=O)[C@H](CC(N)=O)NC(=O)[C@H](CCCN)N=C(N(C)C)N(C)C)C(C)C)C(=O)N1CCC[C@H]1C(=O)N[C@@H](CCCNC(=N)N)C(=O)N1CCC[C@H]1C(=O)N[C@@H](CCCNC(=N)N)C(=O)N1CCC[C@H]1C(=O)N1CCC[C@H]1C(=O)N[C@@H](Cc1c[nH]cn1)C(=O)N1CCC[C@H]1C(=O)N[C@@H](CCCNC(=N)N)C(=O)N[C@@H](CC(C)C)C(=O)O [Api137] ({Orn(α-tetramethylguanidino)}-NNRPVYIPRPRPPHPRL-OH; N-terminus and C-terminus assumed)
reduction of bacterial growth vs untreated control [1]: 70%
Residual iTT (sfGFP expression relative to no PrAMP) [2]: 22% and 22 ± 6.2%
